Data as given in the supplement of paper PMC10307832.

Legend:
Assay in all cases: relative viability (nuclei count vs DMSO), 5 days (fraction); higher = more cells survive
[1] = compound: C[C@@]1(C(=O)Nc2ccc(F)nc2)CCCN1c1nc(Nc2cc(C3CC3)n[nH]2)c2cccn2n1 + Cc1nc(NC(=O)N2CCC[C@H]2C(N)=O)sc1-c1ccnc(C(C)(C)C(F)(F)F)c1 [Alpelisib] (partner 2 µM)
Procedure, shortened: (§1)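 Lung cancer cell lines, seeded in 1536-well plates, were treated the following day by pin tool with a single drug or with five library-drug doses (not always all listed) in √10 steps on top of a fixed anchor-drug dose. Cells were fixed and nuclei stained in one step after 5 days, and nuclei were counted. Relative viability is the nuclei count for treated wells divided by that for vehicle wells, reported as medians of duplicate plates.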

Motesanib + AZD7762 = compound: CC1(C)CNc2cc(NC(=O)c3cccnc3NCc3ccncc3)ccc21 [Motesanib] + NC(=O)Nc1cc(-c2cccc(F)c2)sc1C(=O)N[C@H]1CCCNC1 [AZD7762] (partner 0.2 µM)
Procedure, shortened: as §1

Motesanib + Foretinib = compound: CC1(C)CNc2cc(NC(=O)c3cccnc3NCc3ccncc3)ccc21 [Motesanib] + COc1cc2c(Oc3ccc(NC(=O)C4(C(=O)Nc5ccc(F)cc5)CC4)cc3F)ccnc2cc1OCCCN1CCOCC1 [Foretinib] (partner 0.25 µM)
Procedure, shortened: as §1

Motesanib + Tozasertib = compound: CC1(C)CNc2cc(NC(=O)c3cccnc3NCc3ccncc3)ccc21 [Motesanib] + Cc1cc(Nc2cc(N3CCN(C)CC3)nc(Sc3ccc(NC(=O)C4CC4)cc3)n2)n[nH]1 [Tozasertib] (partner 0.1 µM)
Procedure, shortened: as §1

For NCI-H358, which relative viability ([1]; first compound 0.04 µM) is on record?
Its relative viability is 0.505.

What about the relative viability ([1]; first compound 0.1265 µM) of the same cell line?
Its relative viability is 0.427.

And the relative viability ([1]; first compound 0.4 µM)?
Its relative viability is 0.344.

And the relative viability ([1]; first compound 1.265 µM)?
The relative viability was 0.406.

What about the relative viability (Motesanib + AZD7762; first compound 0.01 µM) of the same cell line?
The relative viability was 0.434.

What about the relative viability (Motesanib + AZD7762; first compound 0.03162 µM) of the same cell line?
The relative viability was 0.626.

And the relative viability (Motesanib + AZD7762; first compound 0.1 µM)?
The relative viability was 0.481.

And the relative viability (Motesanib + AZD7762; first compound 0.3162 µM)?
Its relative viability is 0.661.

What about the relative viability (Motesanib + AZD7762; first compound 1 µM) of the same cell line?
Its relative viability is 0.55.

And the relative viability (Motesanib + Foretinib; first compound 0.01 µM)?
The relative viability was 0.599.

And the relative viability (Motesanib + Foretinib; first compound 0.03162 µM)?
The relative viability was 0.712.

And the relative viability (Motesanib + Foretinib; first compound 0.1 µM)?
The relative viability was 0.67.

And the relative viability (Motesanib + Foretinib; first compound 0.3162 µM)?
Its relative viability is 0.807.

What about the relative viability (Motesanib + Foretinib; first compound 1 µM) of the same cell line?
Its relative viability is 0.629.

And the relative viability (Motesanib + Tozasertib; first compound 0.01 µM)?
The relative viability was 0.103.

What about the relative viability (Motesanib + Tozasertib; first compound 0.03162 µM) of the same cell line?
Its relative viability is 0.103.

And the relative viability (Motesanib + Tozasertib; first compound 0.1 µM)?
Its relative viability is 0.104.

What about the relative viability (Motesanib + Tozasertib; first compound 0.3162 µM) of the same cell line?
Its relative viability is 0.103.

What about the relative viability (Motesanib + Tozasertib; first compound 1 µM) of the same cell line?
The relative viability was 0.107.

Which relative viability ([1]; first compound 0.04 µM) does the source give for NCI-H650 here?
Its relative viability is 1.04.

And the relative viability ([1]; first compound 0.1265 µM)?
The relative viability was 0.731.

What about the relative viability ([1]; first compound 0.4 µM) of the same cell line?
Its relative viability is 0.891.

And the relative viability ([1]; first compound 1.265 µM)?
The relative viability was 0.811.

What about the relative viability (Motesanib + AZD7762; first compound 0.01 µM) of the same cell line?
Its relative viability is 1.05.

What about the relative viability (Motesanib + AZD7762; first compound 0.03162 µM) of the same cell line?
The relative viability was 1.09.

And the relative viability (Motesanib + AZD7762; first compound 0.1 µM)?
Its relative viability is 1.07.

What about the relative viability (Motesanib + AZD7762; first compound 0.3162 µM) of the same cell line?
The relative viability was 0.965.

And the relative viability (Motesanib + AZD7762; first compound 1 µM)?
Its relative viability is 1.

What about the relative viability (Motesanib + Foretinib; first compound 0.01 µM) of the same cell line?
Its relative viability is 1.05.

And the relative viability (Motesanib + Foretinib; first compound 0.1 µM)?
The relative viability was 1.02.

And the relative viability (Motesanib + Foretinib; first compound 0.3162 µM)?
The relative viability was 0.974.

What about the relative viability (Motesanib + Foretinib; first compound 1 µM) of the same cell line?
Its relative viability is 1.02.

What about the relative viability (Motesanib + Tozasertib; first compound 0.01 µM) of the same cell line?
Its relative viability is 0.749.

What about the relative viability (Motesanib + Tozasertib; first compound 0.1 µM) of the same cell line?
Its relative viability is 0.709.

And the relative viability (Motesanib + Tozasertib; first compound 0.3162 µM)?
Its relative viability is 0.707.

And the relative viability (Motesanib + Tozasertib; first compound 1 µM)?
Its relative viability is 0.701.

What does the source list for PC-3 [JPC-3]?
relative viability ([1]; first compound 0.04 µM): 1.06; relative viability ([1]; first compound 0.1265 µM): 0.945; relative viability ([1]; first compound 0.4 µM): 0.893; relative viability ([1]; first compound 1.265 µM): 0.974; relative viability (Motesanib + AZD7762; first compound 0.01 µM): 0.779; relative viability (Motesanib + AZD7762; first compound 0.03162 µM): 0.751; relative viability (Motesanib + AZD7762; first compound 0.1 µM): 0.727; relative viability (Motesanib + AZD7762; first compound 0.3162 µM): 0.731; relative viability (Motesanib + AZD7762; first compound 1 µM): 0.683; relative viability (Motesanib + Foretinib; first compound 0.01 µM): 1.01; relative viability (Motesanib + Foretinib; first compound 0.03162 µM): 1.06; relative viability (Motesanib + Foretinib; first compound 0.1 µM): 1.06; relative viability (Motesanib + Foretinib; first compound 0.3162 µM): 1.03; relative viability (Motesanib + Foretinib; first compound 1 µM): 1.01; relative viability (Motesanib + Tozasertib; first compound 0.01 µM): 0.855; relative viability (Motesanib + Tozasertib; first compound 0.03162 µM): 0.931; relative viability (Motesanib + Tozasertib; first compound 0.1 µM): 0.884; relative viability (Motesanib + Tozasertib; first compound 0.3162 µM): 0.864; relative viability (Motesanib + Tozasertib; first compound 1 µM): 0.85
